Results: patent US11154563B2, “Immunoproteasome inhibitors” (Principia Biopharma Inc., priority 2017, dated 2021)
pIC50: −log10 of the molar value.

Legend:
[1] = target: constitutive proteasome β5c unit (Homo sapiens, UniProt P20618+P28074); assay: Caliper-based proteasome enzymatic activity assay, β5c; assay type: biochemical; conditions: human recombinant constitutive proteasome 0.3 nM, FAM-peptide substrate 1 μM, 3 h at rt; read-out: β5c subunit IC50
Procedure: (§1) A Caliper-based proteasome assay (Caliper Life Sciences, Hopkinton, Mass.) was used to measure inhibition of the immunoproteasome LMP7/B5i subunit, the immunoproteasome LPM2/β1i subunit, and the constitutive proteasome β5c unit for a compound of Formula (I). For LMP7 and β5c, serial dilutions of test compounds were incubated with either human recombinant immunoprotcasome or constitutive proteasome (0.3 nM enzyme) and a carboxyfluorescein (FAM)-labeled peptide substrate FAM-TYETFKSIMKKSPF-NH2 (1 μM) at it for 3 h. The reaction was then terminated with a buffer containing the known proteasome inhibitor carfilzomib at a concentration of 5 uM. For LMP2, serial dilutions of test compounds were incubated with human recombinant immunoproteasome proteasome (0.3 nM enzyme) and a carboxyfluorescein (FAM)-labeled peptide substrate FAM-[…]-NH2 (1 μM) at rt for 2 h. The reaction was then terminated with a buffer containing the known proteasome inhibitor ixazomib at a concentration of 6.7 uM. The reaction buffer was 20 mM Hepes pH 7.4, 0.01% bovine serum albumin, 0.015% SDS, 0.5 mM EDTA, 1%0/DMSO. The peptide cleavage reaction product was quantified on a Caliper LabChip 3000. Percent inhibition was calculated for each compound dilution and the concentration that produced 50% inhibition was calculated. This value is presented as the IC50.

[2] = target: immunoproteasome LMP7/B5i subunit (Homo sapiens, UniProt P20618+P28062); assay: Caliper-based proteasome enzymatic activity assay, LMP7; assay type: biochemical; conditions: human recombinant immunoproteasome 0.3 nM, FAM-peptide substrate 1 μM, 3 h at rt
Procedure: as §1

Row | Structure (SMILES) | pIC50 [1] | pIC50 [2]
1 | CC(C)(C=C(C#N)C(=O)N1CCOC[C@@H]1COC(=O)N[C@@H](CCc1ccccc1)B(O)O)N1CCC(F)(F)C1 [Example 98, ((R)-1-(((((R)-4-(2-cyano-4-(3,3-difluoropyrrolidin-1-yl)-4-methylpent-2-enoyl)morpholin-3-yl)methoxy)carbonyl)amino)-3-phenylpropyl)boronic acid] | 5.49 | 8.46
2 | CC(C)(C=C(C#N)C(=O)N1CCCC[C@]1(C)COC(=O)N[C@@H](Cc1ccccc1)B(O)O)N1CCC(F)(F)C1 [Example 129, ((R)-1-(((((R)-1-(2-cyano-4-(3,3-difluoropyrrolidin-1-yl)-4-methylpent-2-enoyl)-2-methylpiperidin-2-yl)methoxy)carbonyl)amino)-2-phenylethyl)boronic acid] | 5.71 | 8.70
3 | CN(C)C/C=C/C(=O)N1CCC[C@@H]1COC(=O)N[C@@H](Cc1coc2ccccc12)B(O)O [Example 49, ((R)-2-(benzofuran-3-yl)-1-(((((R)-1-((E)-4-(dimethylamino)but-2-enoyl)pyrrolidin-2-yl)methoxy)carbonyl)amino)ethyl)boronic acid] | 6.83 | 8.89
4 | CC(C)(C)C[C@H](NC(=O)OC[C@@]1(C)CCCN1C(=O)C(C#N)=CC(C)(C)N1CCC(F)(F)C1)B(O)O [Example 118, ((R)-1-(((((R)-1-(2-cyano-4-(3,3-difluoropyrrolidin-1-yl)-4-methylpent-2-enoyl)-2-methylpyrrolidin-2-yl)methoxy)carbonyl)amino)-3,3-dimethylbutyl)boronic acid] | 6.24 | 8.82
5 | Cc1ccc(C[C@H](NC(=O)OC[C@H]2[C@H]3C[C@H]3CN2C(=O)C(C#N)=CC(C)(C)C)B(O)O)cc1 [Example 76] | 6.17 | 8.92

The next lines start with the values.

Row | pIC50 [1] | pIC50 [2] | Structure (SMILES)
6 | 6.66 | 8.68 | CC(C)(C=C(C#N)C(=O)N1CCCC[C@@H]1COC(=O)N[C@@H](Cc1coc2ccccc12)B(O)O)N1CCC(F)(F)CC1 [Example 66, ((R)-2-(benzofuran-3-yl)-1-(((((R)-1-(2-cyano-4-(4,4-difluoropiperidin-1-yl)-4-methylpent-2-enoyl)piperidin-2-yl)methoxy)carbonyl)amino)ethyl)boronic acid]
7 | 6.65 | 8.60 | CC(C)(C=C(C#N)C(=O)N1CCCCC[C@@H]1COC(=O)N[C@@H](Cc1coc2ccccc12)B(O)O)N1CCC(F)(F)C1 [Example 72, ((R)-2-(benzofuran-3-yl)-1-(((((R)-1-(2-cyano-4-(3,3-difluoropyrrolidin-1-yl)-4-methylpent-2-enoyl)azepan-2-yl)methoxy)carbonyl)amino)ethyl)boronic acid]
8 | 7.22 | 8.64 | CC(C)(C=C(C#N)C(=O)N1CCOC[C@@H]1COC(=O)N[C@@H](Cc1coc2ccccc12)B(O)O)N1CCC(F)(F)C1 [Example 65, ((R)-2-(benzofuran-3-yl)-1-(((((R)-4-(2-cyano-4-(3,3-difluoropyrrolidin-1-yl)-4-methylpent-2-enoyl)morpholin-3-yl)methoxy)carbonyl)amino)ethyl)boronic acid]
9 | 6.45 | 9.30 | CC(C)(C=C(C#N)C(=O)N1C[C@@H]2C[C@@H]2[C@@H]1COC(=O)N[C@@H](Cc1coc2ccccc12)B(O)O)N1CCOCC1 [Example 51, ((R)-2-(benzofuran-3-yl)-1-(((((1S,2R,5R)-3-(2-cyano-4-methyl-4-morpholinopent-2-enoyl)-3-azabicyclo[3.1.0]hexan-2-yl)methoxy)carbonyl)amino)ethyl)boronic acid]
10 | 6.19 | 8.48 | CC(C)(C=C(C#N)C(=O)N1CCCCC[C@H]1COC(=O)N[C@@H](Cc1coc2ccccc12)B(O)O)N1CCOCC1 [Example 64, ((R)-2-(benzofuran-3-yl)-1-(((((S)-1-(2-cyano-4-methyl-4-morpholinopent-2-enoyl)azepan-2-yl)methoxy)carbonyl)amino)ethyl)boronic acid]
